Data taken from publication PMC9457815 (Molecules, 2022).
pEC50, pIC50: −log10 of the molar value. Like-named read-outs stand apart in the source and are kept apart here.

Tests used:
[1] = Cytotoxicity assay (Cell-Titer GLO, cellular ATP levels) on Huh7 cells; format: cell-based, human; details: human; Huh7 cells, 72 h, ATP levels
Protocol: (§1) Briefly, 7.5 × 10^3 Huh7 cells/well or 2 × 10^4 THP-1 cells/well were plated in black 96-well plates and incubated at 37 °C for 24 h. […] Each dilution was added to the cell plates to obtain final concentrations of 6.25 µM to 200 µM for alkaloids and DMSO, and 0.39 µM to 50 µM for lycorine. […] The plates were then incubated at 37 °C and 5% CO2 for 72 h. Cell-Titer GLO reagent was added to the plates previously equilibrated to room temperature. The plates were then mixed on an orbital shaker for 2 min and incubated for 10 min at room temperature. The luminescence signal was measured with a microplate spectrophotometer (Synergy H1, Biotek, Dorval, QC, Canada). Viability percentages were obtained by calculating the ratio of the signal corresponding to each alkaloid concentration to the signal of the equimolar DMSO control. All experiments were performed at least twice. Median cytotoxic concentrations (CC50) were calculated using QuestGraph IC50 calculator software (MLA Quest Graph™ IC50 Calculator, AAT Bioquest, Inc., Sunnyvale, CA, USA).

Huh7 cells = test: as above; format: cell-based, human; details: for cell death, Huh7 cells: 200 µM; for cytotoxicity to Huh7 cells: tested concentrations (lycorine: below 50 µM)
Protocol: as §1

[2] = Cytotoxicity assay (Cell-Titer GLO, cellular ATP levels) on THP-1 cells; format: cell-based, human; details: human; THP-1 cells, 72 h, ATP levels
Protocol: as §1

THP-1 cells = test: as above; format: cell-based, human
Protocol: as §1

HIV-1GFP = test: microbe, parasite or virus in culture; format: cell-based, human immunodeficiency virus (HIV)-1; details: for pEC50: Human immunodeficiency virus 1, THP-1, 72 h, read-out: EC50 HIV-1; for inhibition at 200 µM: Human immunodeficiency virus 1, THP-1, read-out: inhibition of HIV-1 infection
Protocol: (§2) The plasmid used to obtain the DENVGFP vector (pFK-DVs-G2A) was provided by Ralf Bartenschlager (Heidelberg University, Heidelberg, Germany) and Laurent Chatel-Chaix (Institut National de la Recherche Scientifique, Laval, QC, Canada). The 2 plasmids used to obtain the HIV-1GFP vector were PMD2.G and pNL4-3-GFPΔEnvΔNef. For DENVGFP, viral titer was measured using a plaque assay in Vero cells, as described in [53]. For HIV-1GFP, the viral titer was obtained by measuring the infectivity of serially diluted vectors in CRFK cells, as described in [54].
(§3) Briefly, 7.5 × 10^3 Huh7 cells/well or 2 × 10^4 THP-1 cells/well were plated in 96-well plates at 37 °C for 24 h. […] Each dilution was added to the cell plates to obtain final concentrations of 1.56 µM to 200 µM for alkaloids and matched concentrations of DMSO, and 0.05 µM to 6.4 µM for lycorine or 0.078 µM to 10 µM for raltegravir. Lycorine and raltegravir were used as DENV and HIV-1 inhibitor controls, respectively. DENVGFP and HIV-1GFP were then added at multiplicities of infection (MOIs) of 0.025 and 0.1, respectively. Plates were placed in an incubator at 37 °C and 5% CO2 for 72 h. Afterward, the cells were fixed in 3.7% formaldehyde and the percentage of infection was measured using flow cytometry with an FC500 MPL cytometer (Beckman Coulter, Inc., Brea, CA, USA). Data analysis was performed using Flowjo software (BD, FlowJo LLC, Ashland, OR, USA). All experiments were performed at least twice. EC50 values were calculated using QuestGraph IC50 calculator software (MLA Quest Graph™ IC50 Calculator. AAT Bioquest, Inc. https://www.aatbio.com/tools/ic50-calculator (accessed on 1 July 2022)).

DENVGFP = test: Antiviral assay, propagative DENVGFP vector in Huh7 cells, flow cytometry; format: cell-based, dengue virus (serotype 2); details: Dengue virus, Huh-7, 72 h, read-out: EC50 DENV
Protocol: as §2, §3

AChE = biological target: T1, AChE (Electrophorus electricus, UniProt O42275); test: biochemical; format: biochemical, electric eel; details: substrate ATCh; nid = no inhibition detected at 1 mM
T1 construct: purchased Abcam ab138871
T1 sequence (O42275 24-633): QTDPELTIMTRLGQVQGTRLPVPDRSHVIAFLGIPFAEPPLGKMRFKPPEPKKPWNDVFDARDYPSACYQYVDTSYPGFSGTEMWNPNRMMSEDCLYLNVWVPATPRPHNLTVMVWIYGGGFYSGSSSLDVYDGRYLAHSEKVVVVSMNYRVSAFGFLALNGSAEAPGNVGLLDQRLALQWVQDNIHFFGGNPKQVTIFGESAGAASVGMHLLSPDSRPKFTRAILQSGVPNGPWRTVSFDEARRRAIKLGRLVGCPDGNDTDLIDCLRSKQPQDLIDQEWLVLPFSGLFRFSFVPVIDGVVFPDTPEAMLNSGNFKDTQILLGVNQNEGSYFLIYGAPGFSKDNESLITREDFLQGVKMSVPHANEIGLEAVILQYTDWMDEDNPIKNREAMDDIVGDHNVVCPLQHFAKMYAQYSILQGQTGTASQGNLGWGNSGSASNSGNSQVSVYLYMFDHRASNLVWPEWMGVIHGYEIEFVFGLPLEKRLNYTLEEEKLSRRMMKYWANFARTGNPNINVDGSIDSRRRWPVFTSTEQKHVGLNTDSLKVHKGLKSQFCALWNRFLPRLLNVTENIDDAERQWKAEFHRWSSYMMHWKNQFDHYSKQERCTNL
Protocol: (§4) Pharmacological properties specific to AD were tested first on AChEs (electric eel) according to the kit (ab138871, Abcam) that provides a colorimetric measure of enzyme activity and inhibition. Briefly, the reaction was performed in a final volume of 100 μL in 96-well microplates. […] For this, DMSO-dissolved test compounds were added to a final concentration of 1 mM (1% DMSO) in duplicates. Next, a 5 μL reaction mixture containing equal amounts of acetylthiocholine (20X) and DTNB (20X) was added to each well. Ultimately, the enzyme solution was added to a final concentration of 0.25 U/mL and the absorbance was measured at 412 nm in kinetic mode for 10 min using a microplate reader (Synergy H1, Biotek, Dorval, QC, Canada). The same procedure was utilized for the BuChE (equine, Sigma-Aldrich) activity test, except that the enzyme concentration was 2 U/mL per reaction. DTNB (Bis(3-carboxy-4-nitrophenyl) disulfide, Ellman’s Reagent), acetylthiocholine iodide, and butyrylthiocholine iodide were purchased from Sigma-Aldrich (Oakville, ON, Canada). […] Experiments were performed at least twice. Inhibition was calculated as follows:I = 100 × (1 − Δi/Δe) where Δi is the difference in the absorbance between two time points in the presence of the inhibitor, and Δe is the difference in the absorbance using two time points in presence of DMSO or an appropriate solvent.

BuChE = biological target: T2, BuChE (Equus caballus, UniProt P81908); test: biochemical; set-up: species or system equine; details: for IC50 BuChE / pIC50: nid = no inhibition detected at 1 mM
T2 construct: purchased Sigma-Aldrich
T2 sequence (P81908 whole entry): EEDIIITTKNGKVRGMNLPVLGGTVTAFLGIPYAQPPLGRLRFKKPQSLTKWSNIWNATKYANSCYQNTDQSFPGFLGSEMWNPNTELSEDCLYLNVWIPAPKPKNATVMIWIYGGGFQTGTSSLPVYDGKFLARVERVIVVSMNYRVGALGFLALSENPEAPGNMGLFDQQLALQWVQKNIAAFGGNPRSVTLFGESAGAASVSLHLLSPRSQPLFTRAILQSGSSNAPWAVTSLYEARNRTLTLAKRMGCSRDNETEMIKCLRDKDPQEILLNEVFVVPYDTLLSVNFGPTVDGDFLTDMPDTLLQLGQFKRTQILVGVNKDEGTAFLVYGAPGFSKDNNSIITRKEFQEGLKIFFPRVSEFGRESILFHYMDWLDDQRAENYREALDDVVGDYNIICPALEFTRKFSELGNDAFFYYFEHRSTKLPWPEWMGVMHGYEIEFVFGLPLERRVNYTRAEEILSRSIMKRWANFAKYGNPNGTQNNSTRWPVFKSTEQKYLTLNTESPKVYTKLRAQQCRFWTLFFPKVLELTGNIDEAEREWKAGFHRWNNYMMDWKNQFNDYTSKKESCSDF
Protocol: as §4

POP = biological target: T3, POP (Homo sapiens, UniProt P48147); test: Prolyloligopeptidase (POP) inhibition assay, fluorogenic kit; format: biochemical; details: substrate DPP (Ala-Pro-AMC dipeptide), nid = no inhibition detected at 1 mM
T3 construct: purchased BPS Bioscience Inc
T3 sequence (P48147 1-710): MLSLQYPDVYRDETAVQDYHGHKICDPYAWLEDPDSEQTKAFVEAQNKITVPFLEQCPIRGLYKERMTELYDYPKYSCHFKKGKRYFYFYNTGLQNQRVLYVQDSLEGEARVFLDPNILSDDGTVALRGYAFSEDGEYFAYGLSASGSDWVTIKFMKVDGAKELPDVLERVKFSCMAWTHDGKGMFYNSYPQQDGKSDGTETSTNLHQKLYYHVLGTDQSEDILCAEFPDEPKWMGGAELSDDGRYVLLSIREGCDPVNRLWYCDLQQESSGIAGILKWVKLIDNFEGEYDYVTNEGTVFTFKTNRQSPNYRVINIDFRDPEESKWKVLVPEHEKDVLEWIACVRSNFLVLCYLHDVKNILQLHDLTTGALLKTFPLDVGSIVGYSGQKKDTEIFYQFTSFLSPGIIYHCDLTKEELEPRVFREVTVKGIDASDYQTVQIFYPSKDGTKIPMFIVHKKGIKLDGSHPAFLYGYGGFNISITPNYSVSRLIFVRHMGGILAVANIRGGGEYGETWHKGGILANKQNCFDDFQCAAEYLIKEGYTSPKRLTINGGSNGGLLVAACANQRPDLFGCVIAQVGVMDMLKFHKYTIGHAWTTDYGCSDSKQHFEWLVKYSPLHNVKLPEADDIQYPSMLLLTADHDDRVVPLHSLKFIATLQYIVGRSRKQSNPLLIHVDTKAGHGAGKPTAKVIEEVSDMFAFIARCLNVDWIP
Protocol: POP enzyme activity was measured using the Fluorogenic POP Assay Kit (BPS Bioscience Inc., San Diego, CA, USA). The reaction was carried out in a final volume of 50 μL in a low-binding NUNC microtiter plate. All compounds were tested at a final concentration of 250 μM in duplicate. A DPP substrate was added to a final concentration of 2.5 μM and the POP enzyme solution was subsequently added to a final concentration of 1 ng/μL. Optical densities at 440 nm were recorded using a microplate reader (Synergy H1, Biotek, QC, Canada).

[3] = 100 µM, killing a majority of the cells
[4] = 200 µM, killing a majority of the cells
[5] = tested concentrations (lycorine: below 50 µM)

Row | Compound | CC50 at 72 h [1] | cell death, Huh7 cells (Huh7 cells) | CC50 at 72 h [2] | cytotoxicity to THP-1 cells (THP-1 cells; [3]) | pEC50 (HIV-1GFP) | inhibition at 200 µM (HIV-1GFP) | pEC50 (DENVGFP) | IC50 AChE (AChE) | IC50 BuChE (BuChE; substrate ATCh) | IC50 BuChE (BuChE; substrate BuTCh) | pIC50 (AChE) | loss of BuChE inhibition compared with norbelladine (BuChE) | pIC50 (BuChE; substrate ATCh) | pIC50 (BuChE; substrate BuTCh) | pIC50 (POP; IC50 POP) | cytotoxicity to THP-1 cells (THP-1 cells; [4]) | cytotoxicity to Huh7 cells (Huh7 cells) | cytotoxicity to THP-1 cells (THP-1 cells; [5]) | pIC50 (POP; read-out: IC50 POP) | inhibition at 2000 µM (BuChE; read-out: BuChE inhibition (positive control))
1 | O=Cc1ccc(O)c(O)c1 [3,4-DHBA, 3,4-dihydroxybenzaldehyde] | 173 µM | 50% | 31.7 µM | highly cytotoxic | 4.29 | 94 to 99% | 4.62 | nid | nid | nid | – | – | – | – | – | – | – | – | – | –
2 | COc1ccc(CNCCc2ccc(O)cc2)cc1OC [3′,4′-O-dimethylnorbelladine] | 131 µM | 50% | > 200 µM | – | 4.01 | – | 4.56 | – | – | – | 3.50 | 3 fold | 4.06 | 4.06 | – | – | – | – | – | –
3 | COc1ccc(/C=N/CCc2ccc(O)cc2)cc1OC [3′,4′-O-dimethylnorcraugsodine] | > 200 µM | – | > 200 µM | – | < 3.70 | – | < 3.70 | nid | nid | nid | – | – | – | – | – | – | – | – | – | –
4 | COc1cc(CNCCc2ccc(O)cc2)ccc1O [3′-O-methylnorbelladine] | > 200 µM | – | 99 µM | – | 3.87 | – | 4.35 | nid | – | – | – | – | 4.40 | 4.23 | 2.91 | highly cytotoxic | – | – | – | –
5 | COc1cc(/C=N/CCc2ccc(O)cc2)ccc1O [3′-O-methylnorcraugsodine] | > 200 µM | – | > 200 µM | – | 3.97 | 94 to 99% | 3.75 | nid | nid | nid | – | – | – | – | 2.94 | – | weakly cytotoxic | – | – | –
6 | COc1ccc(CNCCc2ccc(O)cc2)cc1O [4′-O-methylnorbelladine] | > 200 µM | – | > 200 µM | – | 3.97 | – | 4.39 | nid | – | – | – | – | 4.37 | 4.04 | – | – | – | – | – | –
7 | COc1ccc(/C=N/CCc2ccc(O)cc2)cc1O [4′-O-methylnorcraugsodine] | > 200 µM | – | > 200 µM | – | < 3.70 | – | < 3.70 | nid | nid | nid | – | – | – | – | – | – | – | – | – | –
8 | O[C@H]1[C@H]2c3cc4c(cc3CN3CCC(=C[C@@H]1O)[C@H]23)OCO4 [Lycorine, reference compound] | 17.4 µM | – | 10.7 µM | – | – | – | 7.05 | – | – | – | – | – | – | – | – | – | cytotoxic | cytotoxic | – | –
9 | Oc1ccc(CCNCc2ccc(O)c(O)c2)cc1 [Norbelladine] | 72.6 µM | 50% | 82.2 µM | – | 4.30 | 94 to 99% | 4.30 | nid | – | – | – | – | 4.48 | 4.58 | – | highly cytotoxic | – | – | – | –
10 | Oc1ccc(CC/N=C/c2ccc(O)c(O)c2)cc1 [Norcraugsodine] | 122 µM | 50% | 27 µM | highly cytotoxic | 4.26 | 94 to 99% | 4.42 | nid | nid | nid | – | – | – | – | – | – | – | – | 3.25 | –
11 | Cc1nnc(C(=O)NC(C)(C)c2nc(C(=O)NCc3ccc(F)cc3)c(O)c(=O)n2C)o1 [Raltegravir, reference compound] | – | – | > 10 µM | – | 7.01 | – | – | – | – | – | – | – | – | – | – | – | – | – | – | –
12 | NCCc1ccc(O)cc1 [Tyramine] | > 200 µM | – | > 200 µM | – | < 3.70 | – | < 3.70 | nid | nid | nid | – | – | – | – | – | – | not cytotoxic | not cytotoxic | – | –
13 | CCN(C)C(=O)Oc1cccc([C@H](C)N(C)C)c1 [rivastigamine, Rivastigmine, reference compound] | – | – | – | – | – | – | – | – | – | – | – | – | – | – | – | – | – | – | – | 100%
